US5679645A, “Sialic acid powder and process for the preparation thereof” (Snow Brand Milk Products Co., Ltd., priority 1993, dated 1997)

How the values were obtained:
[1] = Water content of sialic acid powders (Table 1, comparison of properties); assay type: physicochemical; details: for Water content: Table 1
[2] = Time for complete dissolution in methanol suspension with Dowex 50; assay type: physicochemical
Protocol: A suspension of 10 g of Dowex 50 (trademark, manufactured by Dow Chemical; H+-type, 100-200 mesh, washed with hot methanol) in 100 ml of methanol was prepared. 10 g of Amorphous Powder 1--1, Needles 1--1, or Prisms 1--1 prepared in Example 1 was each charged to the suspension at 25° C. while vigorously stirring. While continuing the stirring at 25° C., the mixture was sampled from time to time to measure the time required for the sialic acids to be dissolved completely to form a clear solution, the degree of reaction, and the final reaction yield. The reaction yield was calculated by HPLC (HPX-87H column, trademark, manufactured by Bio Rad Co.).

[3] = Solubility in water and organic solvents (statement)
[4] = Relationship between freezing rate and properties of the freeze-dried powder (degree of crystallization, water content; Table 2); assay type: physicochemical; details: 40% by weight aqueous solution
Protocol: Relationship between the freezing rate of a sialic acid aqueous solution and properties of the ultimate product was studied. 40% by weight aqueous solution of sialic acids was used and frozen for different periods of time using liquid nitrogen, a cooling shelf, and a freezer, and freeze-dried for 4 days. The degree of crystallization and the water content were measured.

[5] = 10 g in 100 ml methanol with 10 g Dowex 50 (H+), 25° C., stirring
[6] = time for freezing 1 minute or shorter
[7] = time for freezing 5 minute or shorter
[8] = time for freezing 10 minute or shorter
[9] = time for freezing 30 minute or shorter
[10] = time for freezing 1 hour or shorter
[11] = time for freezing 3 hours or shorter

Compound: CC(=O)N[C@H]1[C@H]([C@H](O)[C@H](O)CO)OC(O)(C(=O)O)C[C@@H]1O (some centres unmarked) [Amorphous Powder 1-1, sialic acid]
- Water content [1]: 2.2%
- Time required for complete dissolution [2, 5]: 6 min
- Time required for complete dissolution (in words) [2, 5]: dissolved fastest

Compound: CC(=O)N[C@H]1[C@H]([C@H](O)[C@H](O)CO)OC(O)(C(=O)O)C[C@@H]1O (some centres unmarked) [sialic acid]
- Water content (in words) ([1]; compared with needles): very close to those of needles
- Solubility in organic solvents and reactivity (in words) ([3]; compared with needles): superiority to such sialic acid needles, in terms of solubility in organic solvents and the reactivity
- Solubility in water (in words) ([3]; compared with needles and prisms): more excellent in its solubility in water than both the needles and the prisms

Compound: CC(=O)N[C@H]1[C@H]([C@H](O)[C@H](O)CO)OC(O)(C(=O)O)C[C@@H]1O (some centres unmarked) [Prisms 1-1, sialic acid]
- Water content [1]: 10.9%
- Crystal water contained in the powder ([1]; stated in discussion of Table 3): about 10%
- Complete dissolution after 5 hours (in words) ([2]; methanol with Dowex 50, 25° C., 5 hours): did not completely dissolved

Compound: CC(=O)N[C@H]1[C@H]([C@H](O)[C@H](O)CO)OC(O)(C(=O)O)C[C@@H]1O (some centres unmarked) [Needles 1-1, sialic acid]
- Water content [1]: 2.1%
- Time required for complete dissolution [2, 5]: 27 min

Compound: CC(=O)N[C@H]1[C@H]([C@H](O)[C@H](O)CO)OC(O)(C(=O)O)C[C@@H]1O (some centres unmarked) [freeze-dried powder, sialic acid]
- Crystallization degree [4, 6]: 0%
- Water content [4, 6]: 1.1-1.7%
- Crystallization degree [4, 7]: > 0.1%
- Water content [4, 7]: 1.2-1.9%
- Crystallization degree [4, 8]: 0.2-0.4%
- Water content [4, 8]: 1.4-2.1%
- Crystallization degree [4, 9]: 1.8-2.3%
- Water content [4, 9]: 2.4-3.6%
- Crystallization degree [4, 10]: 9.8-15.1%
- Water content [4, 10]: 3.9-4.8%
- Crystallization degree [4, 11]: 26-35%
- Water content [4, 11]: 5.1-6.2%
